Experimental data: patent publication US7365082B2, “N-(substituted arylmethyl)-4-(disubstituted methyl)piperidines and piperazines” (Bayer CropScience AG, priority 2002, dated 2008)

System: tobacco budworm (Heliothis virescens [Fabricius])
Assay: surface-treated diet test against tobacco budworm
Format: in vivo
Conditions: 0.25 millimoles of candidate insecticide on the surface of the diet, second instar larvae, five-day exposure; for Percent Mortality: compared to the total number of insects infested; for Percent Growth Inhibition: inhibition of insect weight relative to untreated controls
Experimental: Candidate insecticides were evaluated for activity against the tobacco budworm (Heliothis virescens [Fabricius]) in a surface-treated diet test.
In this test one mL of molten (65-70° C.) wheat germ-based artificial diet was pipetted into each well of a four by six (24 well) multi-well plate (ID# 430345-15.5 mm dia.×17.6 mm deep; Corning Costar Corp., One Alewife Center, Cambridge, Mass. 02140). The diet was allowed to cool to ambient temperature before treatment with candidate insecticide.
For a determination of insecticidal activity, solutions of the candidate insecticides were prepared for testing using a Packard 204DT Multiprobe® Robotic System (Packard Instrument Company, 800 Research Parkway, Meriden, Conn. 06450), in which the robot first diluted a standard 50 millimolar DMSO solution of candidate insecticide with a 1:1 water/acetone solution (V/V) in a ratio of 1:7 stock solution to water/acetone. The robot subsequently pipetted 40 microliters of the so-prepared solution onto the surface of the diet in each of three wells in the 24 multi-well plate. The process was repeated with solutions of seven other candidate insecticides. Once treated, the contents of the multi-well plate were allowed to dry, leaving 0.25 millimoles of candidate insecticide on the surface of the diet, or a concentration of 0.25 millimolar. Appropriate untreated controls containing only DMSO on the diet surface were also included in this test.
For evaluations of the insecticidal activity of a candidate insecticide at varying rates of application, the test was established as described above using sub-multiples of the standard 50 millimolar DMSO solution of candidate insecticide. For example, the standard 50 millimolar solution was diluted by the robot with DMSO to give 5, 0.5, 0.05, 0.005, 0.0005 millimolar, or more dilute solutions of the candidate insecticide. In these evaluations there were six replicates of each rate of application placed on the surface of the diet in the 24 multi-well plate, for a total of four rates of application of candidate insecticide in each plate.
In each well of the test plate was placed one second instar tobacco budworm larvea, each weighing approximately five milligrams. After the larvae were placed in each well, the plate was sealed with clear polyfilm adhesive tape. The tape over each well was perforated to ensure an adequate air supply. The plates were then held in a growth chamber at 25° C. and 60% relative humidity for five days (light 14 hours/day).
After the five-day exposure period insecticidal activity for each rate of application of candidate insecticide was assessed as percent inhibition of insect weight relative to the weight of insects from untreated controls, and percent mortality when compared to the total number of insects infested.
The test compounds of formula I are identified by numbers that correspond to those in Table 1.

Structure (SMILES) | Percent Mortality [%] | Percent Growth Inhibition [%]
CCn1nnc(-c2ccc(CN3CCC(/C(=N\NC(=O)c4ccc(OC(F)(F)F)cc4)c4ccc(OC(F)(F)F)cc4)CC3)cc2)n1 [Compound 149, N-[1-aza-2-(1-{[4-(2-ethyl(1,2,3,4-tetraazol-5-yl))phenyl]methyl}(4-piperidyl))-2-[4-(trifluoromethoxy)phenyl]vinyl][4-(trifluoromethoxy)phenyl]carboxamide] | 100 | 96
Clc1ccc(C(c2ccc(Cl)cc2)N2CCN(Cc3ccc(Oc4ncccn4)cc3)CC2)cc1 [Compound 167] | 100 | 100
FC(F)(F)c1ccc(C(c2ccc(Cl)cc2)N2CCN(Cc3ccc(Oc4ncccn4)cc3)CC2)cc1 (centres unmarked) [Compound 168] | 100 | 100
FC(F)(F)c1ccc(C(c2ccc(C(F)(F)F)cc2)N2CCN(Cc3ccc(Oc4ncccn4)cc3)CC2)cc1 [Compound 169, 2-{4-[(4-{bis[4-(trifluoromethyl)phenyl]methyl}piperazinyl)methyl]phenoxy}pyrimidine] | – | 100
[O-][N+]1(Cc2ccc(Oc3ccccc3F)cc2)CCN(C(c2ccc(OC(F)(F)F)cc2)c2ccc(OC(F)(F)F)cc2)CC1 [Compound 172] | 100 | 100
CC(C)OC(=O)Nc1ccc(C[N+]2([O-])CCN(C(c3ccc(C(F)(F)F)cc3)c3ccc(C(F)(F)F)cc3)CC2)cc1 [Compound 174] | 100 | 100
CCn1nnc(-c2ccc(C[N+]3([O-])CCN(C(c4ccc(C(F)(F)F)cc4)c4ccc(C(F)(F)F)cc4)CC3)cc2)n1 [Compound 175] | 100 | 100
[O-][N+]1(Cc2ccc(Oc3ccccn3)cc2)CCN(C(c2ccc(Cl)cc2)c2ccc(C(F)(F)F)cc2)CC1 (centres unmarked) [Compound 176] | 100 | 100
[O-][N+]1(Cc2ccc(Oc3ccccn3)cc2)CCN(C(c2ccc(C(F)(F)F)cc2)c2ccc(C(F)(F)F)cc2)CC1 [Compound 177] | 100 | 100
[O-][N+]1(Cc2ccc(Oc3ncccn3)cc2)CCN(C(c2ccc(Cl)cc2)c2ccc(Cl)cc2)CC1 [Compound 178] | 0 | 100
[O-][N+]1(Cc2ccc(Oc3ncccn3)cc2)CCN(C(c2ccc(Cl)cc2)c2ccc(C(F)(F)F)cc2)CC1 (centres unmarked) [Compound 179] | 100 | 100
[O-][N+]1(Cc2ccc(Oc3ncccn3)cc2)CCN(C(c2ccc(C(F)(F)F)cc2)c2ccc(C(F)(F)F)cc2)CC1 [Compound 180, 2-{4-[(4-{bis[4-(trifluoromethyl)phenyl]methyl}1-oxypiperazinyl)methyl]phenoxy}pyrimidine] | 100 | 100
